Results published in the Deep4Chem optical property database.
Blank lines part the entries; values can stand above or below the molecule they belong to.

Test: solvent given as SMILES

Structure (SMILES): O=[N+]([O-])c1ccc([N+]2=Cc3ccc4c5c(ccc4c3O[B-]2(c2c(F)c(F)c(F)c(F)c2F)c2c(F)c(F)c(F)c(F)c2F)C=[N+](c2ccc([N+](=O)[O-])cc2)[B-](c2c(F)c(F)c(F)c(F)c2F)(c2c(F)c(F)c(F)c(F)c2F)O5)cc1
absorption maximum (in C1CCOC1): 525 nm | absorption maximum (in CC#N): 513 nm | absorption maximum (in CC(C)=O): 515 nm | absorption maximum (in Cc1ccccc1): 549 nm | absorption maximum (in ClCCl): 553 nm

absorption maximum (in ClCCl): 435 nm
Structure (SMILES): c1ccc2c(c1)ccc1ccc3ccc4ccc5ccccc5c4c3c12

Structure (SMILES): CN(C)c1ccc(C2=Nc3sc4c(F)c(F)c(F)c(F)c4[n+]3[B-](F)(F)O2)cc1
absorption maximum (in C1CCOC1): 434 nm | absorption maximum (in CC#N): 431 nm | absorption maximum (in Cc1ccccc1): 431 nm | absorption maximum (in ClCCl): 433 nm

Structure (SMILES): COC1(OC)C2(Cl)c3nc4cc(-c5cccs5)ccc4nc3C1(Cl)C1C[C@H]3[C@@H](CC12)C1(Cl)c2nc4ccc(-c5cccs5)cc4nc2C3(Cl)C1(OC)OC (stereo not given in full)
absorption maximum (in CC#N): 366 nm | absorption maximum (in CCCCCC): 358 nm | absorption maximum (in CCOC(C)=O): 362 nm | absorption maximum (in CO): 368 nm | absorption maximum (in Cc1ccccc1): 362 nm | absorption maximum (in ClC(Cl)Cl): 366 nm | absorption maximum (in ClCCl): 367 nm

absorption maximum (in CC#N): 401 nm | absorption maximum (in CO): 402 nm
Structure (SMILES): Cc1ccc2sc3cc(CCC(=O)O)ccc3c(=O)c2c1

Structure (SMILES): c1ccc(C(=C(c2ccccc2)c2ccc(-c3ccc(-c4nc5c(-c6ccc(-c7ccc(C(=C(c8ccccc8)c8ccccc8)c8ccccc8)cc7)cc6)sc(-c6ccc(-c7ccc(C(=C(c8ccccc8)c8ccccc8)c8ccccc8)cc7)cc6)c5nc4-c4ccc(-c5ccc(C(=C(c6ccccc6)c6ccccc6)c6ccccc6)cc5)cc4)cc3)cc2)c2ccccc2)cc1
absorption maximum (in Cc1ccccc1): 530 nm | absorption maximum (in ClCCl): 520 nm

absorption maximum (in ClCCl): 588 nm
Structure (SMILES): CCCCCCn1c2cc(C=C(C#N)C#N)sc2c2sc3c(sc4c5sc(C=C(C#N)C#N)cc5n(CCCCCC)c43)c21

absorption maximum (in O): 347 nm
Structure (SMILES): C=CC1CN2CCC1CC2[C@H](O)c1ccnc2ccc(OC)cc12 (stereo not given in full)

Structure (SMILES): c1ccc(-c2c3c(c(-c4ccccc4)c4cc5ccccc5cc24)Cc2c(c(-c4ccccc4)c4cc5ccccc5cc4c2-c2ccccc2)C3)cc1
absorption maximum (in CC#N): 389 nm | absorption maximum (in CCCCCC): 388 nm | absorption maximum (in CO): 388 nm | absorption maximum (in Cc1ccccc1): 391 nm | absorption maximum (in ClCCl): 392 nm

Structure (SMILES): c1ccc2c(c1)[nH]c1c3[nH]c4ccccc4c3c3nsnc3c21
absorption maximum (in CN(C)C=O): 410 nm | absorption maximum (in Cc1ccccc1): 410 nm | absorption maximum (in ClCCl): 410 nm

absorption maximum (in CS(C)=O): 297 nm
Structure (SMILES): Cc1cc2c(cc1C)NC(=O)CC(=O)N2

absorption maximum (in CS(C)=O): 556 nm
Structure (SMILES): C[N+]1=C(/C=C/C=C2/N(CCC[N+](C)(C)C)c3ccc(Br)cc3C2(C)C)C(C)(C)c2ccccc21

absorption maximum (in ClC(Cl)Cl): 574 nm
Structure (SMILES): CCCCCCCCCCCCSc1cc2c3c(ccc4c5c(SCCCCCCCCCCCC)cc6c7c(ccc(c1c34)c75)C(=O)N(C1CCCCC1)C6=O)C(=O)N(C1CCCCC1)C2=O

absorption maximum (in CO): 760 nm
Structure (SMILES): O=C(O)CCCCCn1/c(=C/C=C/C2=[N+](CCCCCC(=O)O)c3cccc4cccc2c34)c2cccc3cccc1c32

absorption maximum (in O): 537 nm
Structure (SMILES): O=C([O-])c1c(Cl)c(Cl)c(Cl)c(Cl)c1-c1c2cc(Cl)c(=O)c(Cl)c-2oc2c(Cl)c(O)c(Cl)cc12

absorption maximum (in C1CCOC1): 687 nm
Structure (SMILES): O=C1/C(=C2\Nc3cc4ccc5cccc6ccc(c3C2=O)c4c56)Nc2cc3ccc4cccc5ccc(c21)c3c45

absorption maximum (in C1CCCCC1): 326.01 nm | absorption maximum (in C1CCOC1): 364.05 nm | absorption maximum (in C1COCCO1): 365.68 nm | absorption maximum (in CC#N): 381.45 nm | absorption maximum (in CCOC(C)=O): 364.01 nm | absorption maximum (in CN(C)C=O): 376.7 nm | absorption maximum (in CO): 386.62 nm | absorption maximum (in CS(C)=O): 368.79 nm | absorption maximum (in ClC(Cl)Cl): 385 nm
Structure (SMILES): N#Cc1nnn(-c2ccnc3cc(Cl)ccc23)c1N

absorption maximum (in CCO): 547 nm | absorption maximum (in O): 548 nm
Structure (SMILES): CN(C)c1ccc2cc3ccc(=[N+](C)C)cc-3oc2c1

absorption maximum (in CC1CCCO1): 460 nm | absorption maximum (in CC#N): 437 nm
Structure (SMILES): Cn1c(=O)nc2n(C)c3ccccc3nc-2c1=O

Structure (SMILES): CCN(CC)c1ccc([N+]2=Cc3ccc4c5c(ccc4c3O[B-]2(c2ccccc2)c2ccccc2)C=[N+](c2ccc([N+](=O)[O-])cc2)[B-](c2ccccc2)(c2ccccc2)O5)cc1
absorption maximum (in C1CCOC1): 547 nm | absorption maximum (in CC#N): 539 nm | absorption maximum (in CC(C)=O): 541 nm | absorption maximum (in Cc1ccccc1): 555 nm | absorption maximum (in ClCCl): 559 nm

absorption maximum (in CCO): 345 nm | absorption maximum (in ClC(Cl)Cl): 393 nm
Structure (SMILES): CCOc1ccc2c(-c3nc(-c4ccccc4F)no3)cc(=O)oc2c1

absorption maximum (in ClCCl): 377 nm
Structure (SMILES): c1ccc2cc(-c3c4ccccc4c(-c4ccc(-n5c6ccccc6c6ccccc65)cc4)c4ccccc34)ccc2c1

absorption maximum (in C1CCCCC1): 470 nm
Structure (SMILES): C[Si](C)(C)C#CC#Cc1ccc2c3cccc4cccc(c5cccc1c52)c43

Structure (SMILES): c1ccc(-c2nc(-c3ccc(-c4ccc(-n5c6ccccc6c6ccccc65)cc4)cn3)oc2-c2ccccc2)cc1
absorption maximum (in C1CCOC1): 333 nm | absorption maximum (in C1COCCO1): 326 nm | absorption maximum (in CC#N): 330 nm | absorption maximum (in CC(C)=O): 333 nm | absorption maximum (in CC(C)OC(C)C): 334 nm | absorption maximum (in CCCCCC): 336 nm | absorption maximum (in CCCCOCCCC): 336 nm | absorption maximum (in CCN(CC)CC): 333 nm | absorption maximum (in CCOC(C)=O): 332 nm | absorption maximum (in CCOCC): 333 nm | absorption maximum (in Cc1ccccc1): 338 nm | absorption maximum (in c1ccccc1): 338 nm

absorption maximum (in C1CCOC1): 405 nm | absorption maximum (in CC#N): 397 nm | absorption maximum (in CCO): 404 nm | absorption maximum (in CCOC(C)=O): 403 nm | absorption maximum (in ClCCl): 404 nm | absorption maximum (in c1ccccc1): 407 nm
Structure (SMILES): CC1(C)CC(/C=C/c2ccc(-n3cccn3)cc2)=CC(=C(C#N)C#N)C1

absorption maximum (in CCO): 369 nm
Structure (SMILES): CCOC(=O)c1cc(C(=O)OCC)c2c(C)ccc(O)c2n1

absorption maximum (in ClCCl): 565 nm
Structure (SMILES): COc1cccc(OC)c1-c1c2ccc(=[N+]3CCCCC3)cc-2oc2cc(N3CCCCC3)ccc12

absorption maximum (in CS(C)=O): 398 nm
Structure (SMILES): Cc1cccn2c1cc1c3ccccc3nc(-c3cccs3)c12

absorption maximum (in ClC(Cl)Cl): 418 nm
Structure (SMILES): C(#Cc1ccccc1)C(C#Cc1ccccc1)=Cc1ccc2cc(C=C(C#Cc3ccccc3)C#Cc3ccccc3)ccc2c1

absorption maximum (in ClCCl): 793 nm
Structure (SMILES): Cc1ccc(C2=[N+]3C(=Nc4c5ccccc5c(-c5ccc(C)s5)n4[B-]3(F)F)c3ccccc32)s1

absorption maximum (in CC1CCCO1): 313 nm
Structure (SMILES): c1ccc2c(c1)-c1ccccc1C21c2ccccc2-c2cccnc21

absorption maximum (in C1CCOC1): 360 nm
Structure (SMILES): C1=Cc2ccccc2C(=Cc2ccc(C=C3c4ccccc4-c4ccccc43)cc2)c2ccccc21

absorption maximum (in CO): 649 nm | absorption maximum (in ClC(Cl)Cl): 669 nm | absorption maximum (in ClCCl): 670 nm
Structure (SMILES): CCN1C(=CC2=C([O-])C(=Cc3sc4ccccc4[n+]3CC)C2=O)Sc2ccccc21

absorption maximum (in CCCCCC): 177 nm
Structure (SMILES): CO

Structure (SMILES): O=S1(=O)C2=C(c3ccc(-c4ccc(N(c5ccccc5)c5ccccc5)cc4)cc31)C1(C3=C(c4ccccc41)S(=O)(=O)c1cc(-c4ccc(N(c5ccccc5)c5ccccc5)cc4)ccc13)c1ccccc12
absorption maximum (in C1CCOC1): 431 nm | absorption maximum (in CC#N): 430 nm | absorption maximum (in CCCCCC): 424 nm | absorption maximum (in Cc1ccccc1): 438 nm | absorption maximum (in ClCCl): 438 nm

absorption maximum (in ClCCl): 457 nm
Structure (SMILES): COc1ccc2cc(C#CC3=C4CCc5ccccc5C4=[O+][B-](F)(F)O3)ccc2c1

Structure (SMILES): CCCCCCCCN1c2ccc(C#Cc3ccc(C(F)(F)F)cc3)cc2Sc2cc(C=O)ccc21
absorption maximum (in C1CCOC1): 384.01 nm | absorption maximum (in CC#N): 380 nm | absorption maximum (in CCCCCC): 376.01 nm | absorption maximum (in CO): 362 nm | absorption maximum (in CS(C)=O): 389.99 nm | absorption maximum (in Cc1ccccc1): 381.99 nm | absorption maximum (in ClC(Cl)Cl): 389.99 nm

Structure (SMILES): Cc1ccc2c(c1)C1(c3ccccc3-c3ccccc31)c1cc(C)ccc1N2c1ccc2c(c1)Oc1ccccc1P2(=O)c1ccccc1 (stereo not given)
absorption maximum (in Cc1ccccc1): 311.25 nm

absorption maximum (in CC#N): 369 nm | absorption maximum (in CCCCCC): 366 nm | absorption maximum (in CO): 370 nm | absorption maximum (in CS(C)=O): 373 nm | absorption maximum (in ClC(Cl)Cl): 371 nm
Structure (SMILES): CCC1=C(C)c2cc3ccccc3c(=O)n2C1=O

Structure (SMILES): N#Cc1cc(N2c3ccccc3Oc3ccccc32)c(N2c3ccccc3Oc3ccccc32)cc1C#N
absorption maximum (in c1ccc2c(c1)c1ccccc1n2-c1ccc(-c2ccc(-n3c4ccccc4c4ccccc43)cc2)cc1): 540 nm

absorption maximum (in ClCCl): 343 nm
Structure (SMILES): ClP1(Cl)=N[P@@](Cl)(Oc2ccc3ccc4cccc5ccc2c3c45)=N[P@@](Cl)(Oc2ccc3ccc4cccc5ccc2c3c45)=N1

Structure (SMILES): Cn1cccc1-c1ccc(C#N)cc1
absorption maximum (in C1CCOC1): 326 nm | absorption maximum (in CC#N): 322 nm | absorption maximum (in CCCCCC): 317 nm | absorption maximum (in CCCCOCCCC): 321 nm | absorption maximum (in CCOCC): 321 nm

Structure (SMILES): CC1(C)c2cc(C#N)ccc2-c2ccc(N3c4ccccc4Oc4ccccc43)cc21
absorption maximum (in C1CCCCC1): 395 nm | absorption maximum (in C1CCOC1): 380 nm | absorption maximum (in CC#N): 375 nm | absorption maximum (in Cc1ccccc1): 390 nm | absorption maximum (in ClC(Cl)Cl): 389 nm

absorption maximum (in ClC(Cl)Cl): 506 nm
Structure (SMILES): N#CC1=CC(/C=C/c2ccccc2)=CC(C#N)=P1(c1ccccc1)c1ccccc1

absorption maximum (in CO): 457 nm
Structure (SMILES): BrC1=CN2C[n+]3cc(Br)c4ccccc4c3N=C2c2ccccc21

Structure (SMILES): CCC1=C(C)C2=C(c3c4ccccc4c(-c4ccccc4)c4ccccc34)c3c(C)c(CC)c(C)n3[B-](F)(F)[N+]2=C1C
absorption maximum (in CC#N): 528 nm | absorption maximum (in CCCCCC): 531 nm | absorption maximum (in CCO): 529 nm | absorption maximum (in CN(C)C=O): 530 nm | absorption maximum (in Cc1ccccc1): 534 nm | absorption maximum (in ClCCl): 532 nm

absorption maximum (in ClC(Cl)Cl): 443 nm
Structure (SMILES): CN(C)c1ccc(-c2ccc(-c3ccc(N(C)C)cc3)c3nc(-c4ccccc4)c(-c4ccccc4)nc23)cc1

absorption maximum (in CN(C)C=O): 342 nm
Structure (SMILES): Fc1cc(-c2ccc(-c3nc4cc(Br)ccc4[nH]3)cc2)ccc1-c1ccc(-c2nc3cc(Br)ccc3[nH]2)cc1

absorption maximum (in ClCCl): 377 nm
Structure (SMILES): CC(C)(C)c1ccc(-c2cc(-c3ccc(-c4cc(-c5ccc(C(C)(C)C)cc5)c(C(=O)N5CCOCC5)s4)s3)sc2C(=O)N2CCOCC2)cc1

absorption maximum (in C1COCCO1): 413 nm | absorption maximum (in CC#N): 413 nm | absorption maximum (in CCCCCCC): 403 nm | absorption maximum (in CO): 419 nm
Structure (SMILES): C(/C=C/c1cc2c3c(c1)CCCN3CCC2)=C\c1ccncc1

absorption maximum (in ClCCl): 400 nm
Structure (SMILES): c1ccc2c(c1)ccc1ccc3c(c12)-c1c(ccc2ccc4ccccc4c12)C3
